± gives the expanded uncertainty stated by the source.
Test: xn = mol fraction of the nth substance listed
Conditions: 101 kPa, Liquid; for speed of sound: Sing-around technique in a fixed-path interferometer; for mass density: Vibrating tube method

CCn1cc[n+](C)c1.COS(=O)(=O)[O-] [1-ethyl-3-methylimidazolium methylsulfate] + CCO
Conditions	mass density, 288.15 K [kg/m3]	mass density, 298.15 K [kg/m3]	mass density, 308.15 K [kg/m3]	speed of sound, 288.15 K [m/s]	speed of sound, 298.15 K [m/s]	speed of sound, 308.15 K [m/s]
x2 = 0	1287.57 ± 0.47	1280.81 ± 0.47	1273.97 ± 0.46	1781 ± 2	1756 ± 2	1732 ± 2
x2 = 0.05	–	1273.01 ± 0.43	1266.14 ± 0.43	–	1744 ± 2	1720 ± 2
x2 = 0.0501	1279.94 ± 0.44	–	–	1769 ± 2	–	–
x2 = 0.1018	1271.31 ± 0.4	–	–	1756 ± 2	–	–
x2 = 0.102	–	1264.42 ± 0.4	1257.55 ± 0.39	–	1731 ± 2	1707 ± 2
x2 = 0.197	–	1246.51 ± 0.34	1239.58 ± 0.33	–	1704 ± 2	1679 ± 2
x2 = 0.1972	1253.48 ± 0.34	–	–	1728 ± 2	–	–
x2 = 0.3098	1228.51 ± 0.28	–	–	1690 ± 2	–	–
x2 = 0.31	–	1221.47 ± 0.27	1214.47 ± 0.27	–	1665 ± 2	1640 ± 2
x2 = 0.391	–	1199.39 ± 0.24	1192.33 ± 0.24	–	1630 ± 2	1605 ± 2
x2 = 0.3913	1206.5 ± 0.24	–	–	1656 ± 2	–	–
x2 = 0.503	1170.26 ± 0.2	1163.02 ± 0.2	1155.75 ± 0.2	1600 ± 2	1574 ± 2	1549 ± 2
x2 = 0.6129	1125.74 ± 0.18	–	–	1532 ± 2	–	–
x2 = 0.613	–	1118.41 ± 0.18	1111.08 ± 0.18	–	1506 ± 2	1480 ± 2
x2 = 0.703	–	1071.36 ± 0.18	1063.86 ± 0.18	–	1440 ± 2	1413 ± 2
x2 = 0.7031	1078.87 ± 0.18	–	–	1467 ± 2	–	–
x2 = 0.8087	1007.23 ± 0.19	–	–	1376 ± 2	–	–
x2 = 0.809	–	999.5 ± 0.19	991.73 ± 0.2	–	1348 ± 2	1321 ± 2
x2 = 0.901	–	914.27 ± 0.23	906.19 ± 0.23	–	1256 ± 2	1226 ± 2
x2 = 0.9011	922.29 ± 0.23	–	–	1286 ± 2	–	–
x2 = 0.948	–	859.57 ± 0.29	851.28 ± 0.29	–	1206 ± 2	1175 ± 2
x2 = 0.9482	867.78 ± 0.29	–	–	1238 ± 2	–	–

CCn1cc[n+](C)c1.COS(=O)(=O)[O-] [1-ethyl-3-methylimidazolium methylsulfate] + CO
Conditions	mass density, 288.15 K [kg/m3]	mass density, 298.15 K [kg/m3]	mass density, 308.15 K [kg/m3]	speed of sound, 288.15 K [m/s]	speed of sound, 298.15 K [m/s]	speed of sound, 308.15 K [m/s]
x2 = 0	1287.57 ± 0.47	1280.81 ± 0.47	1273.97 ± 0.46	1781 ± 2	1756 ± 2	1732 ± 2
x2 = 0.0515	1282.18 ± 0.44	1275.24 ± 0.43	1268.37 ± 0.43	1772 ± 2	1748 ± 2	1724 ± 2
x2 = 0.1025	1276.36 ± 0.4	1269.42 ± 0.4	1262.52 ± 0.39	1763 ± 2	1739 ± 2	1715 ± 2
x2 = 0.1919	1265.13 ± 0.35	1258.14 ± 0.35	1251.2 ± 0.34	1747 ± 2	1722 ± 2	1698 ± 2
x2 = 0.3013	1247.5 ± 0.29	1240.45 ± 0.29	1233.43 ± 0.28	1720 ± 2	1695 ± 2	1670 ± 2
x2 = 0.4032	1227.98 ± 0.25	1220.84 ± 0.24	1213.74 ± 0.24	1690 ± 2	1665 ± 2	1640 ± 2
x2 = 0.5038	1203.27 ± 0.21	1196.01 ± 0.21	1188.8 ± 0.21	1653 ± 2	1628 ± 2	1602 ± 2
x2 = 0.604	1170.7 ± 0.19	1163.31 ± 0.19	1155.94 ± 0.19	1605 ± 2	1578 ± 2	1553 ± 2
x2 = 0.7023	1127.32 ± 0.18	1119.71 ± 0.18	1112.12 ± 0.18	1541 ± 2	1514 ± 2	1487 ± 2
x2 = 0.8003	1065.67 ± 0.2	1057.76 ± 0.2	1049.86 ± 0.21	1452 ± 2	1424 ± 2	1397 ± 2
x2 = 0.9049	962.26 ± 0.25	953.82 ± 0.25	945.37 ± 0.25	1316 ± 2	1286 ± 2	1258 ± 2
x2 = 0.9515	893.83 ± 0.37	885.04 ± 0.37	876.21 ± 0.38	1237 ± 2	1206 ± 2	1176 ± 2
